Two compounds from patent US12427103B2, “Cosmetic composition containing Hibiscus manihot l. extract and method for preparing the same” (ALL IN ON Co., Ltd, priority 2022, dated 2025) can be followed below.

Experiment [1] can be described thus: Antioxidant effect: free radical scavenging by DPPH method. Format: biochemical. To be noted: 30 minutes, 517 nm, based on vitamin C 0.1% as 100%. How it is done: An antioxidant effect experiment was performed to confirm an antioxidant effect of Examples 1 to 4 and Comparative Examples 1 to 8 through a free radical scavenging effect using a DPPH method according to a known method. 100 μl of Examples 1 to 4 and Comparative Examples 1 to 8 were dispensed into 96 microplates, and 10 μl of a 2,2-diphenyl-1-picrylhydrazyl (DPPH) solution dissolved in ethanol to reach 1 mM was added thereto. After a reaction in 30 minutes later at room temperature, absorbance was measured at 517 nm to measure a free radical scavenging activity. An experiment was performed with vitamin C at a concentration of 0.1% as a control group along with the compositions of Examples 1 to 4 and Comparative Examples 1 to 8. The results are shown in table 3 based on the free radical scavenging effect of vitamin C as 100%.
In general terms: DPPH is a stable violet radical that fades when it is reduced.

Experiment [2] deals with RAW264.7 cells. The experiment in a line: Anti-inflammatory effect: nitric oxide (NO) formation inhibition, GRIESS method, LPS stimulus. To be noted: RAW264.7, 10 ppm, LPS 1 μg, 24 hours. It counts as cell-based, mouse. As for the experimental part: An anti-inflammatory effect was confirmed with respect to above Examples 1 to 4 and Comparative Examples 1 to 8.
In order to confirm the anti-inflammatory effect and skin trouble alleviation effect of Examples 1 to 4 and Comparative Examples 1 to 8, an experiment on nitric oxide (NO) formation inhibitory power was performed with a GRIESS method using RAW264.7 cell lines (ATCC number: CRL-2278).
Specifically, RAW264.7 cells, which are mouse macrophages, were subcultured several times and placed in a 24-well plate so that 3×10^5 cells were put into each well, and then incubated for 24 hours. Then, Examples 1 to 4 and Comparative Examples 1 to 8 were replaced with a diluted cell medium at a concentration of 10 ppm. At this time, L-NMMA (L-NG-Monomethylarginine), a NO-production inhibitor, was treated together as a positive control and incubated for 30 minutes, and then 1 μg of lipopolysaccharide (LPS) was treated as a stimulus and cultured for 24 hours. 100 μl of the supernatant was transferred to a 96-well plate and reacted at room temperature for 10 minutes with the addition of 100 μl of GRIESS solution, so as to measure the absorbance at 540 nm, thereby determining an NO inhibitory effect of the compound of Formula 1, and the results are shown in table 4 below.
In general terms: Nitrite, measured by Griess reagent, commonly stands in for NO production.

With `O=C1O[C@H]([C@@H](O)CO)C(O)=C1O` [vitamin C], the “Free radical scavenging effect (%)” value in experiment [1] is recorded as 100%.

For the compound `CNC(=N)NCCC[C@H](N)C(=O)O` [L-NMMA, L-NG-Monomethylarginine], the “NO production inhibition rate (%)” value in experiment [2] worked out at 39.14%.
